The source of these data is ChEMBL document CHEMBL1131786, “Synthesis of probes for the active site of leucine dehydrogenase” (Bioorg Med Chem Lett, 1999).

SMILES strings stand for the structures.

The inhibition is the change of the read-out against control, counted positive when it falls. Low values mean a weak effect, high ones a strong effect.

Test [1] has as its system Sporosarcina. Briefly: Compound was evaluated for the inhibition of Phenylalanine dehydrogenase of Sporosarcina species. Conditions: concentration not given here.
In test [2] the test system is Bacillus. Briefly: Compound was evaluated for the inhibition of Leucine dehydrogenase of Bacillus species. Conditions: concentration not given here.

The compound `C[C@H](O)[C@H](N)C(=O)O` displayed an inhibition in test [1] of 53%.
As for `C[C@@H](O)[C@H](N)C(=O)O`, in test [1], the inhibition was determined as 61%.
In test [2], `COCO[C@H](C)C(=O)C(=O)O` registered an inhibition of 8%.
Turning to `COCO[C@@H](C)C(=O)C(=O)O`, the inhibition in test [2] was 93%.
